Molecules are shown by their SMILES.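 Protocol summary: plate cells (96-well), add compound at 5 concentrations, incubate 48 h, interpolate endpoints linearly. Here, GI50 denotes the concentration required for 50% inhibition of growth.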 Activity calls are given as the source filed them. No stated cut-off is given here; in the data, active = GI50 up to about 1.1 µM and inactive = higher.

9 compounds from ChEMBL document CHEMBL1201862, “PubChem BioAssay data set” (2004) can be followed below.

Test systems include CAKI-1; SK-MEL-2; TK-10; BT-549; MDA-N; M14; SW-620; UO-31; HCT-15; SN12C; OVCAR-3; SK-MEL-5; NCI-H522; HCT-116; SF-539; HL-60; T47D; HOP-62; HOP-92.
Common to all, as to test: growth of human tumour cells (NCI), 48 h

Turning to `Oc1ccc(-c2nc3ccc(Cl)cc3s2)cc1`, the GI50 in the experiment with CAKI-1 is 20.2 µM (inactive); with SK-MEL-2, 18.4 µM (inactive); with TK-10, 20.4 µM (inactive); in the experiment on BT-549, 18.7 µM (inactive); in the experiment with MDA-N, 18.8 µM (inactive); in the experiment on M14, > 100 µM (inactive). In addition, the GI50 was 21.1 µM (inactive) in the experiment with SW-620; 14.2 µM (inactive) in the experiment with UO-31; 15.7 µM in the experiment with HCT-15; 19.4 µM (inactive) in the experiment with SN12C; 23.5 µM (inactive) in the experiment on OVCAR-3; 18.2 µM (inactive) in the experiment with SK-MEL-5. In addition, the GI50 in the experiment on NCI-H522 is 16.3 µM (inactive); in the experiment on HCT-116 it was 16 µM (inactive); in the experiment on SF-539 it was 16.2 µM (inactive); in the experiment on HL-60, 13.8 µM (inactive).

On to `C#CCNC(CSSCC(N)C(=O)O)C(=O)O` (stereo not drawn), for which the GI50 in the experiment on CAKI-1, in the experiment with SK-MEL-2, in the experiment on TK-10, in the experiment with T47D, in the experiment on HOP-62 and in the experiment on MDA-N was > 100 µM (inactive) in each case. Besides, the GI50 in the experiment with M14 is > 100 µM (inactive); in the experiment on HOP-92, 4.73 µM (inactive); in the experiment on SW-620 it was > 100 µM (inactive); in the experiment with UO-31, > 100 µM (inactive); in the experiment on HCT-15 it was above 100 µM; in the experiment on OVCAR-3, > 100 µM (inactive). Moreover, the GI50 with SK-MEL-5, with NCI-H522, in the experiment on HCT-116 and in the experiment on SF-539 was > 100 µM (inactive) throughout.

On to `COc1cccc(C2C3=C(COC3=O)Oc3cc4c(cc32)OCO4)c1` (stereo not drawn), for which the GI50 is 0.0229 µM (active) in the experiment with CAKI-1; < 0.0247 µM (active) in the experiment with SK-MEL-2; 0.0766 µM (active) with TK-10; 0.033 µM (active) in the experiment with HOP-62; > 100 µM (inactive) in the experiment on BT-549; < 0.01 µM (active) in the experiment with MDA-N. In addition, the GI50 with M14 was 0.0307 µM (active); with SW-620 it was 0.0188 µM (active); in the experiment with UO-31, 0.0927 µM (active); in the experiment on HCT-15, 0.0172 µM; in the experiment with SN12C, 0.078 µM (active); in the experiment with OVCAR-3, 0.0219 µM (active). Moreover, the GI50 in the experiment with SK-MEL-5 was 0.0175 µM (active); in the experiment with NCI-H522 it was < 0.01 µM (active); with HCT-116 it was 0.0264 µM (active); in the experiment on SF-539 it was 0.0211 µM (active); with HL-60, < 0.0146 µM (active).

As for `Clc1cccc(Cl)c1C1ON=C(c2ccccc2)N1C12CC3CC(CC(C3)C1)C2` (stereo not drawn), the GI50 in the experiment with CAKI-1 is 40.9 µM (inactive); with SK-MEL-2, 12.1 µM (inactive); in the experiment on TK-10, 63.7 µM (inactive); in the experiment on T47D, 11.4 µM (inactive); in the experiment on HOP-62, 31.6 µM (inactive); in the experiment on MDA-N, 37.6 µM (inactive). In addition, the GI50 was 22.3 µM (inactive) in the experiment with M14; 13.3 µM (inactive) in the experiment on HOP-92; 58.5 µM (inactive) in the experiment on UO-31; 9.75 µM in the experiment on HCT-15; 41.6 µM (inactive) in the experiment on SN12C; 9.38 µM (inactive) in the experiment on OVCAR-3. Also, the GI50 with SK-MEL-5 is 4.57 µM (inactive); in the experiment on NCI-H522, 32.2 µM (inactive); in the experiment on HCT-116 it was 10.9 µM (inactive); in the experiment with SF-539 it was 66.1 µM (inactive); with HL-60, 3.3 µM (inactive).

For the compound `CCOC(=O)c1csc(NC(=O)CCN2CCOCC2)n1`, the GI50 with CAKI-1 is 32 µM (inactive); with SK-MEL-2, > 100 µM (inactive); in the experiment with TK-10, 39.9 µM (inactive); with T47D, > 100 µM (inactive); in the experiment on HOP-62, > 100 µM (inactive); in the experiment with MDA-N, 59.7 µM (inactive). Also, the GI50 was 76.2 µM (inactive) in the experiment on M14; 69.3 µM (inactive) with HOP-92; 49.1 µM (inactive) in the experiment with SW-620; 78.5 µM (inactive) with UO-31; 49.7 µM in the experiment on HCT-15; 39.6 µM (inactive) with OVCAR-3. In addition, the results for the GI50 with SK-MEL-5, with SF-539 and with HL-60 were 67.1 µM (inactive), > 100 µM (inactive) and 27.7 µM (inactive), respectively.

For `O[C@@H]1C[C@H]2N3CC[C@@]2(c2cc4c(cc2C3)OCO4)[C@H]2O[C@@H]12`, the GI50 in the experiment on CAKI-1, in the experiment with SK-MEL-2, with TK-10, in the experiment with HOP-62, in the experiment with BT-549 and with MDA-N was > 100 µM (inactive) each time. The GI50 with M14 is > 100 µM (inactive); with HOP-92 it was > 100 µM (inactive); in the experiment with SW-620, > 100 µM (inactive); with UO-31, > 100 µM (inactive); in the experiment with HCT-15 it was above 100 µM; in the experiment with SN12C, > 100 µM (inactive). Further, the GI50 in the experiment with OVCAR-3 was > 100 µM (inactive); with SK-MEL-5 it was < 0.01 µM (active); in the experiment on NCI-H522 it was > 100 µM (inactive); in the experiment on HCT-116, > 100 µM (inactive); in the experiment with SF-539, 0.0178 µM (active); in the experiment with HL-60, > 100 µM (inactive).

As to `CC(=O)NCCc1c(-c2[nH]c3ccccc3c2CCNC(C)=O)[nH]c2ccccc12`, the GI50 in the experiment on CAKI-1 is > 100 µM (inactive); in the experiment with SK-MEL-2, > 100 µM (inactive); in the experiment on TK-10, 92.7 µM (inactive); in the experiment with HOP-62, 85.7 µM (inactive); in the experiment with BT-549 it was > 100 µM (inactive); with MDA-N, > 100 µM (inactive). For the same compound, the GI50 in the experiment with HOP-92 is 22.2 µM (inactive); in the experiment on SW-620, > 100 µM (inactive); with UO-31 it was > 100 µM (inactive); in the experiment with HCT-15, above 100 µM; with SN12C it was > 100 µM (inactive); with OVCAR-3 it was > 100 µM (inactive). The GI50 with SK-MEL-5 is > 100 µM (inactive); with HCT-116 it was > 100 µM (inactive); in the experiment on SF-539, 74.5 µM (inactive).

Consider `Cc1cn2c(/C=N/NC(=N)N)c(-c3ccc([N+](=O)[O-])cc3)nc2s1`, for which the GI50 in the experiment on CAKI-1 was 2.61 µM (inactive); in the experiment with SK-MEL-2, 1.36 µM (inactive); in the experiment with TK-10 it was 1.57 µM (inactive); in the experiment with T47D it was 0.566 µM (active); with HOP-62 it was 1.29 µM (inactive); in the experiment with MDA-N it was 0.425 µM (active). Besides, the GI50 in the experiment with M14 is 1.17 µM (inactive); in the experiment on HOP-92, 0.641 µM (active); in the experiment on SW-620, 0.175 µM (active); in the experiment on UO-31, 1.95 µM (inactive); with HCT-15, 1.46 µM; in the experiment with SN12C, 1.46 µM (inactive). Also, the GI50 with OVCAR-3 was 1.65 µM (inactive); in the experiment on SK-MEL-5, 1.36 µM (inactive); with HCT-116, 0.227 µM (active); with SF-539 it was 1.68 µM (inactive); in the experiment on HL-60, 1.53 µM (inactive).

Turning to `CC1(C)OP(=O)(c2ccccc2)C=C1Br` (stereo not drawn), the GI50 in the experiment on CAKI-1, with SK-MEL-2, in the experiment with TK-10, in the experiment with T47D, with HOP-62 and in the experiment with MDA-N was > 100 µM (inactive) in each case. Besides, the GI50 with M14 is > 100 µM (inactive); in the experiment on HOP-92 it was > 100 µM (inactive); with SW-620 it was > 100 µM (inactive); with HCT-15 it was above 100 µM; in the experiment on SN12C, > 100 µM (inactive); in the experiment on OVCAR-3, > 100 µM (inactive). Also, the GI50 in the experiment on SK-MEL-5 was > 100 µM (inactive); with NCI-H522 it was > 100 µM (inactive); in the experiment on HCT-116, > 100 µM (inactive); in the experiment with SF-539, > 100 µM (inactive); in the experiment with HL-60 it was 21 µM (inactive).
